Measurements reported in patent publication US9732077B2, “Diazepane orexin receptor antagonists” (MERCK SHARP & DOHME CORP., priority 2013, dated 2017).

How the values were obtained:
human orexin-2 receptor = biological target: T1, human orexin-2 receptor (Homo sapiens, UniProt O43614); test: OX2R FLIPR Ca flux assay (CHO cells); assay type: cell-based; details: for IC50: CHO cells expressing human orexin-2 receptor, agonist 70 pM Ala-6,12 orexin-A; for Fold Selectivity OX2R vs. OX1R: ratio of OX1R FLIPR to OX2R FLIPR
T1 construct: expressed in transfected cells; host or cells: CHO cells (G418 selection)
T1 sequence (O43614 1-444): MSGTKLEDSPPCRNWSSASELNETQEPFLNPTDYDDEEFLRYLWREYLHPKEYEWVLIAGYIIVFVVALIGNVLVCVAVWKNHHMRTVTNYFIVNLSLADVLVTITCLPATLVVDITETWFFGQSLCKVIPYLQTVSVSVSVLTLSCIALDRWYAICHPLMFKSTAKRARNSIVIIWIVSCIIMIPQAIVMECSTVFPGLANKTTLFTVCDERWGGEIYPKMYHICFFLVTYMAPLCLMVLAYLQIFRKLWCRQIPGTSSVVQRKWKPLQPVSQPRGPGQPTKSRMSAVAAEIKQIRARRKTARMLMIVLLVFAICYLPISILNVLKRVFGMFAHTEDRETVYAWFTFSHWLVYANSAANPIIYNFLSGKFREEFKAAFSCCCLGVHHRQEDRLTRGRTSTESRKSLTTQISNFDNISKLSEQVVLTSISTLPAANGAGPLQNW
Description: (§1) The utility of the compounds in accordance with the present invention as orexin receptor OX1R and/or OX2R antagonists may be readily determined without undue experimentation by methodology well known in the art, including the “FLIPR Ca^+ Flux Assay” (Okumura et al., Biochem. Biophys. Res. Comm. 280:976-981, 2001). In a typical experiment the OX1 and OX2 receptor antagonistic activity of the compounds of the present invention was determined in accordance with the following experimental method. For intracellular calcium measurements, Chinese hamster ovary (CHO) cells expressing the rat orexin-1 receptor or the human orexin-2 receptor, are grown in Iscove's modified DMEM containing 2 mM L-glutamine, […], 1% hypoxanthine-thymidine supplement, 100 U/ml penicillin, 100 μg/ml streptomycin and 10% heat-inactivated fetal calf serum (FCS). The cells are seeded at 20,000 cells/well into Becton-Dickinson black 384-well clear bottom sterile plates coated with poly-D-lysine. All reagents were from GIBCO-Invitrogen Corp. The seeded plates are incubated overnight at 37° C. and 5% CO2. Ala-6,12 human orexin-A as the agonist is prepared as a 1 mM stock solution in 1% bovine serum albumin (BSA) and diluted in assay buffer (HBSS containing 20 mM HEPES, 0.1% BSA and 2.5 mM probenecid, pH7.4) for use in the assay at a final concentration of 70 pM. Test compounds are prepared as 10 mM stock solution in DMSO, then diluted in 384-well plates, first in DMSO, then assay buffer. On the day of the assay, cells are washed 3 times with 100 μl assay buffer and then incubated for 60 min (37° C., 5% CO2) in 60 μl assay buffer containing 1 μM Fluo-4AM ester, 0.02% pluronic acid, and 1% BSA. The dye loading solution is then aspirated and cells are washed 3 times with 100 μl assay buffer. 30 μl of that same buffer is left in each well. Within the Fluorescent Imaging Plate Reader (FLIPR, Molecular Devices), test compounds are added to the plate in a volume of 25 μl, incubated for 5 min and finally 25 μl of agonist is added. Fluorescence is measured for each well at 1 second intervals for 5 minutes and the height of each fluorescence peak is compared to the height of the fluorescence peak induced by 70 pM Ala-6,12 orexin-A with buffer in place of antagonist. For each antagonist, IC50 value (the concentration of compound needed to inhibit 50% of the agonist response) is determined. Alternatively, compound potency can be assessed by a radioligand binding assay (described in Bergman et. al. Bioorg. Med. Chem. Lett. 2008, 18, 1425-1430) in which the inhibition constant (Ki) is determined in membranes prepared from CHO cells expressing either the OX1 or OX2 receptor. The intrinsic orexin receptor antagonist activity of a compound which may be used in the present invention may be determined by these assays.

rat orexin-1 receptor = biological target: T2, rat orexin-1 receptor (Rattus norvegicus, UniProt P56718); test: OX1R FLIPR Ca flux assay (CHO cells); assay type: cell-based; details: CHO cells expressing rat orexin-1 receptor; agonist 70 pM Ala-6,12 orexin-A
T2 construct: expressed in transfected cells; host or cells: CHO cells (G418 selection)
T2 sequence (P56718 1-416): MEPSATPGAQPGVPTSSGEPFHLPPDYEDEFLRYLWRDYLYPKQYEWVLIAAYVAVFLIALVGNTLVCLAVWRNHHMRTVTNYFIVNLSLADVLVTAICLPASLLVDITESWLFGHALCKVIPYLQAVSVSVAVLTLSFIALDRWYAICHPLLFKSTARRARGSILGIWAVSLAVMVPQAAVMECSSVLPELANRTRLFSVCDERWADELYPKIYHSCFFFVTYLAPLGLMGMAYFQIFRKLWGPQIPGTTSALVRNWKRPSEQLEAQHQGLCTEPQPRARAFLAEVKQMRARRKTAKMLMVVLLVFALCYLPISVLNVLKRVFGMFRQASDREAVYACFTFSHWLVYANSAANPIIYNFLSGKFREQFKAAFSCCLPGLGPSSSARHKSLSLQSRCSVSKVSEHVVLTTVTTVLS
Description: as §1

IC50 (human orexin-2 receptor) [nM] | Fold Selectivity OX2R vs. OX1R (human orexin-2 receptor) [fold] | IC50 (rat orexin-1 receptor) [nM] | SMILES | selectivity between orexin-2 receptor and orexin-1 receptor (in words) (human orexin-2 receptor; comparison with diazepane compounds of WO 2007/126935, whole cell FLIPR functional assay)
57 | >175 | > 10000 | CC(C)(O)c1csc(N2CCCN(C(=O)c3cccnc3OCC(F)(F)F)CC2)n1 [Example 23, (4-(4-(2-hydroxypropan-2-yl)thiazol-2-yl)-1,4-diazepan-1-yl)(2-(2,2,2-trifluoroethoxy)pyridin-3-yl)methanone] | –
166 | >60 | > 10000 | Cc1cc(C)nc(N2CCCN(C(=O)c3cccnc3-c3ccccc3)CC2)n1 [Example 11, 1-(4,6-dimethylpyrimidin-2-yl)-4-[(2-phenylpyridin-3-yl)carbonyl]-1,4-diazepane] | –
20 | 145 | 2900 | Cc1oc(N2CCCN(C(=O)c3ccc(F)cc3-n3nccn3)CC2)nc1C(C)(C)O [Example 18, 2-[2-(4-{[4-fluoro-2-(2H-1,2,3-triazol-2-yl)phenyl]carbonyl}-1,4-diazepan-1-yl)-5-methyl-1,3-oxazol-4-yl]propan-2-ol] | –
34 | 231 | 7890 | CCOc1ncccc1C(=O)N1CCCN(c2nc(C(C)(C)O)c(C)o2)CC1 [Example 21, 2-(2-{4-[(2-ethoxypyridin-3-yl)carbonyl]-1,4-diazepan-1-yl}-5-methyl-1,3-oxazol-4-yl)propan-2-ol] | –
26 | 142 | 3690 | Cc1oc(N2CCCN(C(=O)c3cccnc3OCC(F)F)CC2)nc1C(C)(C)O [Example 16, 2-[2-(4-{[2-(2,2-difluoroethoxy)pyridin-3-yl]carbonyl}-1,4-diazepan-1-yl)-5-methyl-1,3-oxazol-4-yl]propan-2-ol] | –
64 | 132 | 8500 | CCOc1ccccc1C(=O)N1CCCN(c2nc(C)cc(C)n2)CC1 [Example 7, 1-(4,6-dimethylpyrimidin-2-yl)-4-[(2-ethoxyphenyl)carbonyl]-1,4-diazepane] | –
18 | 343 | 6170 | Cc1cc(C)nc(N2CCCN(C(=O)c3cccnc3OCC(F)(F)F)CC2)n1 [Example 1, (4-(4,6-dimethylpyrimidin-2-yl)-1,4-diazepan-1-yl)(2-(2,2,2-trifluoroethoxy)pyridin-3-yl)methanone] | –
17 | 146 | 2490 | Cc1oc(N2CCCN(C(=O)c3cccnc3OCC(F)(F)F)CC2)nc1C(C)(C)O [Example 17, 2-[5-methyl-2-(4-{[2-(2,2,2-trifluoroethoxy)pyridin-3-yl]carbonyl}-1,4-diazepan-1-yl)-1,3-oxazol-4-yl]propan-2-ol] | –
17 | 106 | 1810 | Cc1cc(C)nc(N2CCCN(C(=O)c3ccccc3C3CC3)CC2)n1 [Example 9, 1-[(2-cyclopropylphenyl)-carbonyl]-4-(4,6-dimethylpyrimidin-2-yl)-1,4-diazepane] | –
216 | >46 | > 10000 | CC(C)(O)c1csc(N2CCCN(C(=O)c3ccccc3OC(F)(F)F)CC2)n1 [Example 24, (4-(4-(2-hydroxypropan-2-yl)thiazol-2-yl)-1,4-diazepan-1-yl)(2-(trifluoromethoxy)phenyl)meth-anone] | –
– | – | – | Cc1ccc(-n2nccn2)c(C(=O)N2CCCN(c3nc4ccccc4o3)CC2)c1 [Example B-3, reference compound] | greater selectivity for the orexin-1 receptor than for the orexin-2 receptor
76 | >131 | > 10000 | Cc1cc(C)nc(N2CCCN(C(=O)c3ccccc3OC(F)F)CC2)n1 [Example 5, 1-{[2-(difluoromethoxy)phenyl]carbon-yl}-4-(4,6-dimethylpyrimidin-2-yl)-1,4-diazepane] | –
108 | >92 | > 10000 | CC(C)(O)c1csc(N2CCCN(C(=O)c3ccccc3C3CC3)CC2)n1 [Example 25, (2-cyclopropylphenyl)(4-(4-(2-hydroxypropan-2-yl)thiazol-2-yl)-1,4-diazepan-1-yl)methanone] | –
136 | >73 | > 10000 | CC(C)(O)c1csc(N2CCCN(C(=O)c3ccc(F)cc3-n3nccn3)CC2)n1 [Example 26, (4-fluoro-2-(2H-1,2,3-triazol-2-yl)phenyl)(4-(4-(2-hydroxypropan-2-yl)thiazol-2-yl)-1,4-diazepan-1-yl)methanone] | –
21 | 137 | 2880 | Cc1oc(N2CCCN(C(=O)c3ccccc3OC(F)(F)F)CC2)nc1C(C)(C)O [Example 15, 2-[5-methyl-2-(4-{[2-(trifluoromethoxy)phenyl]carbonyl}-1,4-diazepan-1-yl)-1,3-oxazol-4-yl]propan-2-ol] | –
27 | 47 | 1270 | Cc1oc(N2CCCN(C(=O)c3ccccc3-n3nccn3)CC2)nc1C(C)(C)O [Example 13, 2-[5-methyl-2-(4-{[2-(2H-1,2,3-triazol-2-yl)phenyl]carbonyl}-1,4-diazepan-1-yl)-1,3-oxazol-4-yl]propan-2-ol] | –
90 | >111 | > 10000 | CC(C)(O)c1csc(N2CCCN(C(=O)c3cccnc3OCC(F)F)CC2)n1 [Example 22, (2-(2,2-difluoroethoxy)pyridin-3-yl)(4-(4-(2-hydroxypropan-2-yl)thiazol-2-yl)-1,4-diazepan-1-yl)methanone] | –
106 | >94 | > 10000 | Cc1cc(C)nc(N2CCCN(C(=O)c3cccnc3OC(C)C)CC2)n1 [Example 4, 1-(4,6-dimethylpyrimidin-2-yl)-4-{[2-(1-methylethoxy)pyridin-3-yl]carbonyl}-1,4-diazepane] | –
20 | >500 | > 10000 | Cc1cc(C)nc(N2CCCN(C(=O)c3cccnc3OCC(F)F)CC2)n1 [Example 6, 1-{[2-(2,2-difluoroethoxy)pyridin-3-yl]carbonyl}-4-(4,6-dimethylpyrimidin-2-yl)-1,4-diazepane] | –

SMILES | IC50 (human orexin-2 receptor) [nM] | Fold Selectivity OX2R vs. OX1R (human orexin-2 receptor) [fold] | IC50 (rat orexin-1 receptor) [nM] | selectivity between orexin-2 receptor and orexin-1 receptor (in words) (human orexin-2 receptor; comparison with diazepane compounds of WO 2007/126935, whole cell FLIPR functional assay)
Cc1cc(C)nc(N2CCCN(C(=O)c3ccccc3-n3cccn3)CC2)n1 [Example 8, 1-(4,6-dimethylpyrimidin-2-yl)-4-{[2-(1H-pyrazol-1-yl)phenyl]carbonyl}-1,4-diazepane] | 88 | >113 | > 10000 | –
